# Reference: patent publication US20120214798A1, “Novel Ethanediamone Hepcidine Antagonists” (VIFOR (INTERNATIONAL) AG, priority 2009, published 2012)
# Biological target: T1, human ferroportin (Homo sapiens, UniProt Q9NP59)
# T1 construct: expressed in transfected cells
# T1 sequence (Q9NP59 1-571): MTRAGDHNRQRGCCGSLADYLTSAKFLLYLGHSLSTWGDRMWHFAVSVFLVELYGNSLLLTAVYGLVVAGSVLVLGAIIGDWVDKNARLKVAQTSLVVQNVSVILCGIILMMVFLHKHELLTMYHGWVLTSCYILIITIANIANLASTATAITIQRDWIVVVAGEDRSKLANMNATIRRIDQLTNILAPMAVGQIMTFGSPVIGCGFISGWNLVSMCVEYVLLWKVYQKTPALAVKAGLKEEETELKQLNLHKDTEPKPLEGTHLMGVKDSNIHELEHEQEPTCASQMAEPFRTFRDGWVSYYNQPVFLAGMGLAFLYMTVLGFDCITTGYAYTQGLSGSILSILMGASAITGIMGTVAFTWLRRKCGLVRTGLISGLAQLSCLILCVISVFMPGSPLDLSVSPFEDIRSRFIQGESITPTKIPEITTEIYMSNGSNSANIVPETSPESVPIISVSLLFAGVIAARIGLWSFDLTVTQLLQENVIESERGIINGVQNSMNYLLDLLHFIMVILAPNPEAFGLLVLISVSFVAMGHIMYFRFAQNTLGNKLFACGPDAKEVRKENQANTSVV
# Experiment: Ferroportin internalization assay (inhibition of hepcidin-induced internalization of Fpn, MDCK-FPN-HaloTag cells)
# Assay type: cell-based
# Settings: 100 nM hepcidin
# Description: The hepcidin-antagonistic action of the ethanediamine compounds of the present invention was determined by means of the “ferroportin internalization assay” described in the following.
# Organic compounds of low molecular weight which counteract the biological actions of hepcidin on its receptor, the iron exporter ferroportin (Fpn), were identified on the basis of their ability to inhibit hepcidin-induced internalization of Fpn in living cells. For this purpose, a stable cell line (Madin-Darby canine kidney, MDCK) was produced which constitutively expresses human ferroportin fused recombinantly at its C terminus with a fluorescent reporter protein (HaloTag®, Promega Corp.). The internalization of Fpn was monitored by labelling these cells with fluorescent ligands (HaloTag®-TMR, tetramethylrhodamine) which join covalently on to the HaloTag reporter gene fused with the Fpn. […] Optimized image analysis algorithms were used to ascertain the cell surface and to quantify the corresponding membrane fluorescence associated with the Fpn-HaloTag fusion protein. This assay allows a quantitative image-based analysis in order to quickly evaluate compounds which can block hepcidin-induced internalization of Fpn. This assay is a direct in vitro pendant of the in vivo action mechanism proposed for medicament candidates and is therefore suitable as an initial assay with a high throughput for identifying compounds which counteract the action of hepcidin on its receptor ferroportin.
# • 7,500 cells per well (MDCK-FPN-HaloTag) were transinoculated in 50 μl of DMEM medium (Dulbeccos Modified Eagle Medium with 10% foetal bovine serum (FBS), which contained 1% penicillin, 1% streptomycin and 450 μg/ml of G-418) in microtitre plates with 384 wells (384 Cell carrier plates, Perkin Elmer, cat. no. 6007430), followed by incubation overnight at 37° C./5% CO2. • The volume of the medium was reduced to 10 μl, and 10 μl of 5 μM HaloTag-TMR ligands (Promega, cat. no. G 8251) were added in DMEM medium in order to stain the Fpn-HaloTag fusion protein. • 15 min incubation at 37° C./5% CO2 • The HaloTag-TMR ligand was removed and the cells were washed with fresh DMEM medium and the volume was reduced to 20 μl of DMEM medium. • 3 μl per well of a solution of the test compound (dissolved DMSO) were added ([…]). • 7 μl of […] hepcidin (Peptides International, cat. no. PLP-4392-s, 100 μM stock solution diluted in water in DMEM medium) were added per well up to a final hepcidin concentration of 100 nM. • The cells were incubated overnight at 37° C./5% CO2. • The cells were fixed by adding paraformaldehyde (PFA, Electron Microscopy Sciences, cat. no. 15710-S) directly to the cells up to a final concentration of 4%, followed by incubation at room temperature for 15-20 minutes. • The PFA solution was removed and the cells were washed with PBS (phosphate-buffered saline solution), in each case 30 μl remaining in the plate. • 20 μl of Draq5 (Biostatus, cat. no. DR 51000) were added up to a final concentration of 2.5 μM in order to stain the cell nuclei, and the plates were sealed with a foil plate seal. • The plates were analysed with the Opera Plate Imager (Opera Confocal Plate Imager, Perkin Elmer) with 7 images per well; 440 ms exposure time per image, […] focal point height.
row,SMILES,I [%] (median inhibition [%] at 10 μm substance conc.)
1,"Fc1ccc(C(CN2CCN(c3cnccn3)CC2)NCc2ccccn2)cc1 (stereo not drawn) [Example 1, [1-(4-Fluoro-phenyl)-2-(2,3,5,6-tetrahydro-[1,2′]bipyrazinyl-4-yl)-ethyl]-pyridin-2-ylmethyl-amine]",>50
2,"O=C(C1CCCO1)N1CCN(CC(NCc2ccccn2)c2ccc(F)cc2)CC1 (stereo not drawn) [Example 2, (4-{2-(4-Fluoro-phenyl)-2-[(pyridin-2-ylmethyl)-amino]-ethyl}-piperazin-1-yl)-(tetrahydro-furan-2-yl)-methanone]",<50
3,"O=C(C1CCCO1)N1CCN(CC(NCc2ccccn2)c2ccccc2)CC1 (stereo not drawn) [Example 3, (4-{2-Phenyl-2-[(pyridin-2-ylmethyl)-amino]-ethyl}-piperazin-1-yl)-(tetrahydro-furan-2-yl)-methanone]",<50
4,COCCN1CCN(C(CN2CCC(N3CCCCC3)CC2)c2ccccc2)CC1 (stereo not drawn) [Example 4],>50
5,c1ccc(C(CN2CCC(N3CCCCC3)CC2)NCCN2CCOCC2)cc1 (stereo not drawn) [Example 5],<50
6,COc1ccc(CNC(CN2CCC(N3CCCCC3)CC2)c2ccccc2)cc1 (stereo not drawn) [Example 6],<50
